Assay results from patent US7618787B2, “Method of screening compound capable of accelerating or inhibiting apoptosis, apoptosis accelarator and apoptosis inhibitor” (Hisamitsu Pharmaceutical Co., Inc., priority 2004, dated 2009).

What was measured:
p73 [1] = target: T1, p73 (Homo sapiens, UniProt O15350); experiment: p73 protein level (stabilization) by immunoblot in cotransfected COS7 cells; type: cell-based; settings: COS7 cotransfection (FIG. 14, 15, 29)
T1 construct: expressed in transfected cells; host or cells: COS7
T1 sequence (O15350 1-636): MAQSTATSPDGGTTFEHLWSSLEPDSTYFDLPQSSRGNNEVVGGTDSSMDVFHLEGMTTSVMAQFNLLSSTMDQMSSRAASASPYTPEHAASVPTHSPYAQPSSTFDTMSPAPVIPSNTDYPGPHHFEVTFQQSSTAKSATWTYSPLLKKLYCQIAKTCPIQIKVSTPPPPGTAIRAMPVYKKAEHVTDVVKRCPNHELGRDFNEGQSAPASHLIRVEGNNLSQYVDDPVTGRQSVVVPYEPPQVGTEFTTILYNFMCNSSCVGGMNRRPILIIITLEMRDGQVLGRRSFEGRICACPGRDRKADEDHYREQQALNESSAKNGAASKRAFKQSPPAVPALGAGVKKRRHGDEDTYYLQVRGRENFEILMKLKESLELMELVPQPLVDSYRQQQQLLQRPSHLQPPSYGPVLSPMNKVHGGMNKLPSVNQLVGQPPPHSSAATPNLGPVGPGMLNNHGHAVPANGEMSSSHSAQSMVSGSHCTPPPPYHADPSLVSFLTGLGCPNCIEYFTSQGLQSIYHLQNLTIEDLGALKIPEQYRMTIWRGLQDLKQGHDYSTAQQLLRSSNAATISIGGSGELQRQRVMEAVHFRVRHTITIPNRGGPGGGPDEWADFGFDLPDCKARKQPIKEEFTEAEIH
Method: (§1) Cells were transiently transfected with a total of 2 μg of expression plasmids. After 48 hours of the transfection, the cells were washed with ice-cold PBS and suspended in lysis buffer (pH 8.0; which contained 25 mM Tris-Cl, 137 mM sodium chloride, 1% Triton X-100, 1 mM phenylmethylsulfonyl fluoride (PMSF), and protease inhibitor mix (Roche Molecular Biochemicals)), followed by brief sonication. After centrifugation at 15000 rpm for 10 minutes, the supernatant was collected and assayed for protein concentrations by the Bradford assay (Bio-Rad). Equal amounts of lysates (protein amount: 50 μg) from the whole cells were denatured by boiling in Laemmli SDS-sample buffer, then separated on 10% SDS-polyacrylamide gel (SDS-PAGE), and transferred at room temperature for 1 hour to polyvinylidene difluoride (PVDF) membranes (Immobilon-P; Millipore) in Tris-glycine buffer containing 10% methanol. The membranes were blocked at room temperature for 1 hour with Tris-buffered saline (TBS-T) containing 5% skim milk and 0.1% Tween 20.
As previously reported, some protein kinases (e.g., c-Abl and PKCδ) that interact with p73 can stabilize p73. To confirm whether IKK-α influenced the stabilization of p73, COS7 cells were transfected with a constant amount of HA-p73α expression plasmid together with or without varying amounts of IKK-α expression plasmids and examined for HA-p73α protein levels. […] Next, whether IKK-β influenced the stabilization of p73 and p53 was investigated by transient transfection.

H1299 cells = experiment: Apoptosis assay (trypan blue / Red-Gal double staining), p73α-dependent; type: cell-based, human; settings: H1299, coexpression with HA-p73α, 48 hours (FIG. 25-27)
Method: To detect apoptosis via p73α and IKK overexpression, H1299 cells were seeded at a density of 1.5×10^4 cells/well onto a 6-well tissue culture dish. Next day, the cells were transiently transfected with 50 ng of β-galactosidase expression plasmid and 50 ng of HA-p73α expression plasmid in the presence or absence of varying amounts of IKK-α or IKK-β expression vectors (100, 200, or 400 ng). After 48 hours of the transfection, the cells were washed with ice-cold PBS and stained at room temperature for 10 minutes with 0.4% trypan blue (PBS solution). Then, the cells were washed twice with PBS, then fixed for 10 minutes in PBS containing 2.5% glutaraldehyde, 1 mM magnesium chloride, and 2 mM EGTA, and stained for 2 hours with Red-Gal (Research Organics) according to the method described in Bayon, Y. et al., Mol. Cell. Biol. 23: 1061-1074 (2003). Red-Gal was used as a marker for visualizing the transfected cells to evaluate the degree of apoptosis occurring in the transfectants. […] Results were indicated by an average of three independent transfections (each performed three times or more).
Potential effect(s) of IKK-α on p73-dependent biological functions such as the regulation of apoptosis was examined. […] After 48 hours of the transfection, the cells were subjected to double staining with trypan blue (nonviable cells) and Red-Gal (transfected cells), and the number of purple cells was scored.

p53 = p53 protein level (stabilization) by immunoblot in cotransfected COS7 cells; type: cell-based; settings: COS7 cotransfection (FIG. 14, 15)
Method: as §1
As previously reported, some protein kinases (e.g., c-Abl and PKCδ) that interact with p73 can stabilize p73. To confirm whether IKK-α influenced the stabilization of p73, COS7 cells were transfected with a constant amount of HA-p73α expression plasmid together with or without varying amounts of IKK-α expression plasmids and examined for HA-p73α protein levels. […]

p73 [2] = experiment: Luciferase reporter assay, p73-dependent transcriptional activation in H1299 cells; type: cell-based, human; settings: H1299, coexpression with HA-p73α or HA-p73β (FIG. 20, 21, 23)
Method: H1299 cells deficient in p53 were seeded at a density of 5×10^4 cells/well onto a 12-well tissue culture dish and transiently transfected with 100 ng of luciferase reporter construct (which carried a p53/p73-responsive element derived from a p21^WAF1, Bax, or MDM2 promoter), 10 ng of pRL-TK Renilla luciferase cDNA, and 25 ng of given expression plasmid (p53, HA-p73α, or HA-p73β) together with or without varying amounts of IKK-α or FLAG-IKK-β expression plasmids. The total amount of DNA per transfection was kept constant (510 ng) with a pcDNA3 empty plasmid. After 48 hours from the transfection, the cells were washed twice with ice-cold PBS and suspended in passive lysis buffer (Promega). Both firefly and Renilla luciferase activities were assayed by use of dual-luciferase reporter assay system (Promega) according to the instruction. […] intensity was measured with TD-20 luminometer (Turner Design). The firefly luciferase signal was normalized based on the Renilla luciferase signal. Results obtained from at least 3 transfections were indicated by mean value±standard deviation.
To explore the functional implication of interaction between IKK-α and p73, the effect of IKK-α on p73-mediated transcriptional activation was first examined. H1299 cells deficient in p53 were transfected with a HA-p73α or HA-p73β expression plasmid and a luciferase reporter construct under the control of a p21^WAF1, Bax, or MDM2 promoter together with or without varying amounts of IKK-α expression plasmids. […] By contrast, increase in p53-responsive reporter gene activity was not induced by IKK-α (FIG. 22). To examine the specificity of p73-dependent transcriptional activation mediated by IKK-α, whether IKK-β enhanced p73 transcriptional activity to p53/p73-responsive promoters was confirmed.

HA-p73α = target: T2, HA-p73α (Homo sapiens, UniProt O15350); experiment: Ubiquitination assay in COS7 cells; type: cell-based; settings: COS7, HA-p73α and HA-ubiquitin, MG-132 (FIG. 18, 19)
T2 construct: expressed in transfected cells; host or cells: COS7
T2 sequence (O15350 1-636): T1 sequence (O15350 1-636)
Method: COS7 cells were transiently transfected with a constant amount of expression plasmids encoding HA-p73α and HA-Ub in the presence or absence of varying amounts of IKK-α expression plasmids. After […] from the transfection, the cells were exposed for 6 hours to a proteasome inhibitor MG-132 (final concentration: 20 μM), and lysates from the whole cells were first subjected to immunoprecipitation with an anti-p73 monoclonal antibody and then to immunoblot using an anti-HA monoclonal antibody (12CA5; Roche Molecular Biochemicals) to analyze ubiquitination levels.
As described by Lee, C.-W. et al., Oncogene 18: 4171-4181 (1999), the steady-state level of p73 was regulated at least partially by the proteolytic process through the ubiquitin-proteasome pathway. Whether IKK-α inhibited the ubiquitination of p73 was investigated. COS7 cells were transfected with expression plasmids for HA-p73α and HA-ubiquitin together with or without varying amounts of IKK-α or FLAG-IKK-β expression plasmids. After 48 hours of the transfection, lysates from the whole cells were analyzed by immunoprecipitation and immunoblot and examined for the presence of p73α containing HA-ubiquitin.

FLAG-IKK-β: IκB kinase catalytic subunit IKK-β (IKK-2), FLAG-tagged, expressed from plasmid as comparison
amount of HA-p73α (p73 [1]): no detectable effect on the stabilization of both p73 and p53
number of cells undergoing p73α-dependent apoptosis (H1299 cells): no remarkable effect on p73α-dependent apoptosis
stabilization of p53 (p53): no detectable effect on the stabilization of both p73 and p53
p73-dependent transcriptional activation of p21WAF1, Bax, MDM2 promoter reporters (p73 [2]): no remarkable change in p73-dependent transcriptional activation
amount of ubiquitinated p73α (HA-p73α): inhibited the ubiquitination of p73α to a somewhat lesser degree
